Source: US20060063785A1, “Substituted pyrazolo[1,5-a] pyrimidines and process for making same” (priority 2004, published 2006)
Read-outs that look alike come from different tables or passages of the source.

Legend:
[1] = test system: 80S14 (p21-deficient) cells; assay: Determination of selectivity of compounds for p21-/- cells: IC50 in 80S14 cells (SRB); type: cell-based, human; settings: SRB, read-out: IC50 for 80S14
Description: • 1. 80S14 (p21-deficient) cells were cultured in RPMI 1640 medium (Gibco/Invitrogen Life technologies) supplemented with 10% fetal bovine serum (FBS, Gibco) and 10 μg/ml gentamycin (Gibco). Cells were maintained at 37° C. under 7% CO2. • 2. Cells were plated at 6×10^4/ml (0.2 ml/well; 12,000 cells/well) in 96-well microtiter plates (Falcon or Corning/Costar) and incubated at 37° C. overnight (18-24 hours). • 3. 2-5 μl of the test agent-[200 μg/ml stock in 20% DMSO/20 mM HEPES, pH 7.5 (Gibco)] was added to each well to achieve a final concentration of 2-5 μg/ml. Cells were incubated with the test compounds for 5 days at 37° C. • 4. Surviving cells were fixed with 50 μl 50% trichloroacetic acid (Sigma; 10% final concentration) for 1 hour at 4° C. • 5. Plates were rinsed twice with water (0.3 ml per wash using MRD8 robot), and allowed to dry. • 6. Sulforhodamine B (SRB) (Sigma; 0.4% in 1% acetic acid, 50 μl per well; MRD8 robot) was added and plates kept at room temperature for 10 minutes. • 7. Excess dye was removed by washing with 1% acetic acid (3 times, 0.3 ml per wash; MRD8 robot) and allowed to dry. • 8. The dye was solubilized in Tris base (Sigma; 10 mM, 150 μl per well). Plates were kept at room temperature for 30 minutes to allow the dye to diffuse. • 9. Absorbance was measured at 540 nm. • 10. The percentage of cells surviving drug treatment relative to control wells (no drug) was determined. • 11. The difference in % cell survival between the two cell lines was calculated. • 12. Compounds producing a difference score of >50 were considered to be selective for the p21-deficient cells and were evaluated further. Determination of Selectivity of Compounds for p21−/− Cells: • 1. 80S14 cells were cultured as described above. • 2. Cells were seeded in 96-well microtiter plates at 12,000 cells/well (either 0.15 ml/well of 8×10^4 cells/ml suspension, or 0.2 ml/well of 6×10^4 cells/ml suspension). Plates were incubated at 37° C. overnight (18-24 hours). • 3. Serial dilutions of the test agent were added to each well. Dilutions were prepared either in 40% DMSO/20% methanol/20 mM HEPES, pH 7.5 (Gibco) or directly in growth medium. One of two dose ranges were used: 5 pM to 50 μM or 170 pg/ml to 10 μg/ml. Cells were incubated with the test compounds for 5 days at 37° C. • 4. Surviving cells were fixed with 50 μl 50% trichloroacetic acid (Sigma; 10% final concentration) for 1 hour at 4° C. • 5. Plates were rinsed extensively in water, and allowed to dry. • 6. Sulforhodamine B (Sigma; 0.4% in 1% acetic acid, 70 μl per well) was added and plates kept at room temperature for 10 minutes. • 7. Excess dye was removed by washing 5 times with 1% acetic acid and plates were allowed to dry. • 8. The dye was solubilized in Tris base (Sigma; 10 mM, 150 μl per well). Plates were placed on a titer plate shaker (Lab Line Instruments) for 5 minutes to allow the dye to diffuse. • 9. Absorbance was measured at 560 nm.
10. The drug concentration which inhibits cell proliferation by 50% relative to untreated controls (IC50) was determined from cytotoxicity curves.

[2] = test system: LoVo Colon cell line; assay: Cytotoxicity assay using LoVo colon cell line (SRB, IC50); type: cell-based; settings: Cellular activity in LoVo cell; 4 days incubation, SRB assay; read-out: Inhibition of LoVo
Description: Cytotoxicity Assay Using LoVo Colon Cell Line: • 1. LoVo Colon cell lines was cultured in RPMI 1640 medium (Gibco/Invitrogen Life Sciences) supplemented with 10% fetal bovine serum (FBS, Gibco) and 50 μg/ml gentamicin (Gibco). Cells were maintained at 37° C. under 7% CO2. • 2. Cells were seeded in 96-well microtiter plates (Corning/Costar) in a volume of 0.15 ml of growth medium (4000 cells/well). Plates were incubated at 37° C. overnight (18-24 hours). • 3. Serial dilutions of the test agent were added to each well. Dilutions were prepared in growth medium. One of two dose ranges was used: 5 pM to 20 μM or […] to 10 μg/ml. Cells were incubated with the test compounds for 4 days at 37° C. • 4. Surviving cells were processed using the SRB asay, as described above.
5. The drug concentration that inhibits cell proliferation by 50% relative to untreated controls (IC50) was determined from cytotoxicity curves using the LSW Toolbox graphing application.

[3] = Cellular activity in 80S14 (p21-deficient) cells, class symbols

Row | melting point | Molecule | further results
1 | 158 to 160 °C | CCCCNC(=O)Nc1cccc(-c2ccnc3c(C(=O)c4cccs4)cnn23)c1 [Example 6, N-butyl-N′-{3-[3-(thien-2-ylcarbonyl)pyrazolo [1,5-a]pyrimidin-7-yl]phenyl}urea] | –
2 | 212 to 215 °C | O=C(Nc1cccc(-c2ccnc3c(C(=O)c4cccs4)cnn23)c1)c1ccncc1 [Example 201, N-{3-[3-(2-Thienylcarbonyl)pyrazolo[1,5-a]pyrimidin-7-yl]phenyl}isonicotinamide] | –
3 | 190 to 191 °C | O=C(Nc1cccc(-c2ccnc3c(C(=O)c4cccs4)cnn23)c1)c1ccccc1F [Example 254, 2-Fluoro-N-{3-[3-(thien-2-ylcarbonyl)pyrazolo[1,5-a]pyrimidin-7-yl]phenyl}benzamide] | –
4 | 124 to 128 °C | O=C(c1cccs1)c1cnn2c(-c3cccc(NCc4ccco4)c3)ccnc12 [Example 263, (7-{3-[(2-Furylmethyl)amino]phenyl}pyrazolo[1,5-a]pyrimidin-3-yl)(thien-2-yl)methanone] | –
5 | 128 to 131 °C | COc1ccccc1/C=C/CNc1cccc(-c2ccnc3c(C(=O)c4cccs4)cnn23)c1 [Example 288, [7-(3-{[(2E)-3-(2-Methoxyphenyl)prop-2-enyl]amino}phenyl)pyrazolo[1,5-a]pyrimidin-3-yl](thien-2-yl)methanone] | –
6 | > 200 °C | CC(C)NC(=N)Nc1cccc(-c2ccnc3c(C(=O)c4cccs4)cnn23)c1 [Example 301, N-Isopropyl-N′-{3-[3-(thien-2-ylcarbonyl)pyrazolo[1,5-a]pyrimidin-7-yl]phenyl}guanidine] | –
7 | 84 to 86 °C | CCC(C)C(C)CNc1cccc(-c2ccnc3c(C(=O)c4cccs4)cnn23)c1 (stereo not shown) [Example 318] | –
8 | 118 to 120 °C | C/C=C(\C)CNc1cccc(-c2ccnc3c(C(=O)c4cccs4)cnn23)c1 [Example 319] | –
9 | 72 to 75 °C | CC/C=C/CNc1cccc(-c2ccnc3c(C(=O)c4cccs4)cnn23)c1 [Example 320] | –
10 | 104 to 106 °C | C=C(C)CNc1cccc(-c2ccnc3c(C(=O)c4cccs4)cnn23)c1 [Example 322] | –
11 | 79 to 82 °C | C=C(CC)CNc1cccc(-c2ccnc3c(C(=O)c4cccs4)cnn23)c1 [Example 323] | –
12 | 215 to 216 °C | O=C(O)c1ccccc1C(=O)Nc1cccc(-c2ccnc3c(C(=O)c4cccs4)cnn23)c1 [Example 331, 2-[({3-[3-(Thien-2-ylcarbonyl)pyrazolo[1,5-a]pyrimidin-7-yl]phenyl}amino)carbonyl]benzoic acid] | –

Continued, molecule first:

Row | Molecule | melting point | further results
13 | O=C(Nc1cccc(-c2ccnc3c(C(=O)c4cccs4)cnn23)c1)OCC(Cl)(Cl)Cl [Example 12, 2,2,2-trichloroethyl 3-[3-(thien-2-ylcarbonyl)pyrazolo[1,5-a]pyrimidin-7-yl]phenylcarbamate] | 197 to 200 °C | IC50 ([1]; Homo sapiens, 120 h, 80S14 (p21-deficient) cells, 5 days at 37° C.): < 1000 nM
14 | O=C(c1ccco1)c1cnn2c(-c3cccc(-n4cccc4)c3)ccnc12 [Example 186, 2-Furanyl[7-[3-(1H-pyrrol-1-yl)phenyl]pyrazolo[1,5-a]pyrimidin-3-yl]-methanone] | 204 to 206 °C | –
15 | O=C(c1cccs1)c1cnn2c(Cl)ccnc12 [Example 284, (7-Chloropyrazolo[1,5-a]pyrimidin-3-yl)(thien-2-yl)methanone] | 148 to 150 °C | –
16 | CC(C)NC(=NC#N)Nc1cccc(-c2ccnc3c(C(=O)c4cccs4)cnn23)c1 [Example 304, N″-Cyano-N-isopropyl-N′-{3-[3-(thien-2-ylcarbonyl)pyrazolo[1,5-a]pyrimidin-7-yl]phenyl}guanidine] | 240 to 241 °C | –
17 | O=C(Nc1cccc(-c2ccnc3c(C(=O)c4cccs4)cnn23)c1)OCCCN1CCS(=O)(=O)CC1 [Example 309, 3-(1,1-Dioxidothiomorpholin-4-yl)propyl 3-[3-(thien-2-ylcarbonyl)pyrazolo[1,5-a]pyrimidin-7-yl]phenylcarbamate] | 148 to 159 °C | –
18 | CC(C)CC(=O)Nc1cccc(-c2ccnc3c(-c4cccc(N)c4)cnn23)c1 [Example 352, N-{3-[3-(3-Aminophenyl)pyrazolo[1,5-a]pyrimidin-7-yl]phenyl}-3-methylbutanamide] | 173 to 175 °C | –
19 | (7-{3-[1-(Pyridin-2-ylmethyl)-1H-pyrazol-3-yl]phenyl}pyrazolo[1,5-a]pyrimidin-3-yl)(thien-2-yl)methanone [Example 406] | – | IC50 [2]: < 100 nM; IC50 [1, 3]: < 1000 nM
20 | (7-{3-[2-(2-Hydroxyethyl)-2H-tetraazol-5-yl]phenyl}pyrazolo[1,5-a]pyrimidin-3-yl)(thien-2-yl)methanone [Example 402] | – | IC50 [2]: 100 to 1000 nM; IC50 [1, 3]: < 1000 nM
21 | (7-{3-[2-(Pyridin-2-ylmethyl)-2H-tetraazol-5-yl]phenyl}pyrazolo[1,5-a]pyriridin-3-yl)(thien-2-yl)methanone [Example 397] | – | IC50 [2]: 100 to 1000 nM; IC50 [1, 3]: < 1000 nM
22 | tert-Butyl 4-[2-oxo-2-({3-[3-(thien-2-ylcarbonyl)pyrazolo[1.5-a]pyrimidin-7-yl]phenyl}amino)ethyl]piperidine-1-carboxylate [Example 286] | – | IC50 [2]: < 100 nM; IC50 [1, 3]: < 1000 nM
23 | {7-[3-(1-Ethyl-1H-pyrazol-3-yl)phenyl]pyrazolo[1,5-a]pyrimidin-3-yl}(thien-2-yl)methanone [Example 407] | – | IC50 [2]: 100 to 1000 nM; IC50 [1, 3]: 1000 to 10000 nM
24 | {7-[3-(1H-Pyrazol-3-yl)phenyl]pyrazolo[1,5-a]pyrimidin-3-yl}(thien-2-yl)methanone [Example 403] | – | IC50 [2]: < 100 nM; IC50 [1, 3]: < 1000 nM
